Results: the NIST ThermoML archive (doi:10.1021/je050070r)
Numbers after ± are expanded uncertainties.

Conditions: Liquid

O=C(O)C(F)(F)C(F)(F)C(F)(F)C(F)(F)C(F)(F)C(F)(F)C(F)(F)C(F)(F)C(F)(F)C(F)(F)C(F)(F)F [dodecanoic acid, tricosafluoro-]
Conditions	vapor or sublimation pressure [kPa]
400.73 K	0.856 ± 0.12
413.72 K	1.819 ± 0.17
422.1 K	2.854 ± 0.2
422.75 K	2.985 ± 0.2
433.27 K	4.848 ± 0.24
445.63 K	8.29 ± 0.33
457.94 K	13.81 ± 0.47
470.59 K	22.07 ± 0.67
483.66 K	34.48 ± 0.98
498.85 K	55.15 ± 1.5
520.51 K	99.96 ± 2.6

O=C(O)C(F)(F)C(F)(F)C(F)(F)C(F)(F)C(F)(F)C(F)(F)C(F)(F)C(F)(F)C(F)(F)F [nonadecafluorodecanoic acid]
Conditions	vapor or sublimation pressure [kPa]
402.71 K	3.129 ± 0.2
406.24 K	3.749 ± 0.22
414.08 K	5.541 ± 0.26
425.35 K	9.331 ± 0.35
436.83 K	15.18 ± 0.5
447.12 K	22.77 ± 0.69
460.65 K	37.23 ± 1.1
476.08 K	62.05 ± 1.7
492.03 K	99.97 ± 2.6

O=C(O)C(F)(F)C(F)(F)C(F)(F)C(F)(F)C(F)(F)C(F)(F)C(F)(F)C(F)(F)F [perfluorononanoic acid]
Conditions	vapor or sublimation pressure [kPa]
372.78 K	1.12 ± 0.16
382.69 K	2.02 ± 0.17
390.81 K	3.12 ± 0.2
401.7 K	5.54 ± 0.26
412.92 K	9.33 ± 0.36
423.86 K	15.19 ± 0.5
432.85 K	22.77 ± 0.69
446.11 K	37.25 ± 1.1
461.08 K	62.07 ± 1.7
476.13 K	99.97 ± 2.6
476.27 K	99.97 ± 2.6

O=C(O)C(F)(F)C(F)(F)C(F)(F)C(F)(F)C(F)(F)C(F)(F)C(F)(F)F [pentadecafluorooctanoic acid]
Conditions	vapor or sublimation pressure [kPa]
332.4 K	0.128 ± 0.037
335.52 K	0.168 ± 0.037
339.75 K	0.231 ± 0.045
345.75 K	0.361 ± 0.061
352.15 K	0.581 ± 0.088
359.75 K	0.96 ± 0.14
368.05 K	1.602 ± 0.16
377.09 K	2.69 ± 0.19
387.15 K	4.591 ± 0.24
397.55 K	7.691 ± 0.32
409.26 K	13.07 ± 0.45
421.75 K	22.16 ± 0.67
435.35 K	37.25 ± 1.1
450.95 K	63.98 ± 1.7
463.95 K	96.5 ± 2.5

O=C(O)C(F)(F)C(F)(F)C(F)(F)C(F)(F)C(F)(F)C(F)(F)C(F)(F)C(F)(F)C(F)(F)C(F)(F)F [perfluoroundecanoic acid]
Conditions	vapor or sublimation pressure [kPa]
385.19 K	0.616 ± 0.092
393.78 K	1.062 ± 0.15
402.69 K	1.752 ± 0.17
412.29 K	2.785 ± 0.19
412.41 K	2.789 ± 0.19
422.37 K	4.513 ± 0.24
431.47 K	6.925 ± 0.3
445.17 K	12.44 ± 0.43
459.92 K	20.7 ± 0.64
473.83 K	34.49 ± 0.98
475.24 K	34.48 ± 0.98
491.44 K	58.6 ± 1.6
491.79 K	58.6 ± 1.6
509.83 K	96.51 ± 2.5
510.8 K	99.97 ± 2.6
